Experimental data from paper PMC6270271, “Accidental Interaction between PDZ Domains and Diclofenac Revealed by NMR-Assisted Virtual Screening” (Molecules, 2013).

Experiments:
mouse ZO-1 (mZO1-PDZ1) [1] = target: T1, mouse ZO-1 (mZO1-PDZ1) (Mus musculus, UniProt P39447); assay: 1H-15N SOFAST-HMQC NMR titration; V92E-R96Q mutant abolishes binding
T1 construct: gene Tjp1
T1 sequence (P39447 18-110): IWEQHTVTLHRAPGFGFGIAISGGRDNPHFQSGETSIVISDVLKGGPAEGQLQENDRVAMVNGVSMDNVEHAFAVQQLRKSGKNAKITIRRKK

[2] = target: T2, InaDL (InaDL_PDZ6, PDZ13) (Homo sapiens, UniProt Q8NI35); assay: 1H-15N SOFAST-HMQC NMR titration; format: binding
T2 construct: gene PATJ; PDZ6 domain, 113 residues
T2 sequence (Q8NI35 1058-1170 limits assumed): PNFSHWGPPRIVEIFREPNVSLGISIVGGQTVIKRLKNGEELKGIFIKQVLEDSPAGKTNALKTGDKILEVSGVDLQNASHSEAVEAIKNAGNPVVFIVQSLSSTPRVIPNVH

RHPN2 (RHPN2_PDZ, PDZ7) = target: T3, RHPN2 (RHPN2_PDZ, PDZ7) (Homo sapiens, UniProt Q8IUC4); assay: 1H-15N SOFAST-HMQC NMR titration; format: binding
T3 construct: PDZ domain, 99 residues
T3 sequence (Q8IUC4 515-593 limits assumed): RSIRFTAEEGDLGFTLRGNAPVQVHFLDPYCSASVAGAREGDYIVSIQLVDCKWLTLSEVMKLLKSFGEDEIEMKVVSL
Description: 1H-15N SOFAST-HMQC NMR titration on RHPN2 (RHPN2_PDZ, PDZ7) | PDZ7|−|++|++|−|−|−|−|+|−|−

[3] = target: T4, Harmonin (Harmonin_PDZ2, PDZ8) (Homo sapiens, UniProt Q9Y6N9); assay: 1H-15N SOFAST-HMQC NMR titration; format: binding
T4 construct: gene USH1C; PDZ2 domain, 100 residues
T4 sequence (Q9Y6N9 201-300 limits assumed): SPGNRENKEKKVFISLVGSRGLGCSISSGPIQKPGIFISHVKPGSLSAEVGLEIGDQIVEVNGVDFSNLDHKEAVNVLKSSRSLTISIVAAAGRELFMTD
Description: 1H-15N SOFAST-HMQC NMR titration on Harmonin (Harmonin_PDZ2, PDZ8) | PDZ8|−|+|−|−|−|−|−|++|−|−

mouse ZO-1 (mZO1-PDZ1) [4] = target: T1, mouse ZO-1 (mZO1-PDZ1); assay: 1H-15N SOFAST-HMQC NMR titration; format: binding

O=C(O)Cc1ccccc1Nc1c(Cl)cccc1Cl [DIF, 2-[(2,6-dichlorophenyl)amino] benzene-acetic acid]
Kd (mouse ZO-1 (mZO1-PDZ1) [1]): 1.4 mM | 1H-15N SOFAST-HMQC NMR titration [2]: PDZ13|n. e.|++|+|−|−|−|−|++|−|− | 1H-15N SOFAST-HMQC NMR titration (RHPN2 (RHPN2_PDZ, PDZ7)): PDZ7|−|++|++|−|−|−|−|+|−|− | 1H-15N SOFAST-HMQC NMR titration [3]: PDZ8|−|+|−|−|−|−|−|++|−|−

CC(=O)O[C@H]1C[C@@]2(C)[C@@H](C[C@@H](O)[C@H]3[C@@]4(C)CC[C@@H](O)[C@@H](C)[C@@H]4CC[C@@]32C)/C1=C(\CCC=C(C)C)C(=O)O [FUA, fusidic acid]
1H-15N SOFAST-HMQC NMR titration (RHPN2 (RHPN2_PDZ, PDZ7)): PDZ7|−|++|++|−|−|−|−|+|−|−

O=C(O)c1ccccc1Nc1cccc(C(F)(F)F)c1 [FLF, 2-[[3-(trifluoro-methyl)phenyl]amino] benzoic acid]
1H-15N SOFAST-HMQC NMR titration [2]: PDZ13|n. e.|++|+|−|−|−|−|++|−|− | 1H-15N SOFAST-HMQC NMR titration (RHPN2 (RHPN2_PDZ, PDZ7)): PDZ7|−|++|++|−|−|−|−|+|−|− | Kd (mouse ZO-1 (mZO1-PDZ1) [4]): 0.75 mM | 1H-15N SOFAST-HMQC NMR titration [3]: PDZ8|−|+|−|−|−|−|−|++|−|−
